Data published in patent US6323219A, “Methods for treating immunomediated inflammatory disorders” (Ortho-McNeil Pharmaceutical, Inc., priority 1999, dated 2001).
Entries after “also recorded” stand apart in the source; their conditions may differ.

T1: Human Skin Chymase (Homo sapiens, UniProt P23946)
T1 construct: purchased Cortex Biochem CP1129; host or cells: human skin
T1 sequence (P23946 22-247): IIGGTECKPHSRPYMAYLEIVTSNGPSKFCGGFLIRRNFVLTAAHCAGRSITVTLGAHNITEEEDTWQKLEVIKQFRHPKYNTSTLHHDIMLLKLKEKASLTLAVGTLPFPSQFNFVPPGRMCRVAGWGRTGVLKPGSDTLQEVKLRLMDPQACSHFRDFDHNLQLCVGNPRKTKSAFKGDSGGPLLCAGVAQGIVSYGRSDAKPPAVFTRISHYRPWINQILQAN

B1: STI: soybean trypsin inhibitor, available from Sigma (protein, UniProt P01070 25-205, looked up)
Trypsin inhibitor A: DFVLDNEGNPLENGGTYYILSDITAFGGIRAAPTGNERCPLTVVQSRNELDKGIGTIISSPYRIRFIAEGHPLSLKFDSFAVIMLCVGIPTEWSVVEDLPEGPAVKIGENKDAMDGWFRLERVSDDEFNNYKLVFCPQQAEDDKCGDIGISIDHDDGTRRLVVSKNKPLVVQFQKLDKESL
B2: Trypsin: Activates TR and PAR-2 (protein, UniProt P00760 24-246, looked up)
Serine protease 1: IVGGYTCGANTVPYQVSLNSGYHFCGGSLINSQWVVSAAHCYKSGIQVRLGEDNINVVEGNEQFISASKSIVHPSYNSNTLNNDIMLIKLKSAASLNSRVASISLPTSCASAGTQCLISGWGNTKSSGTSYPDVLKCLKAPILSDSSCKSAYPGQITSNMFCAGYLEGGKDSCQGDSGGPVVCSGKLQGIVSWGSGCAQKNKPGVYTKVCNYVSWIKQTIASN

Tested on: S91 cells
Experiment: Pigmentation of choleratoxin-induced S91 cells
Assay type: cell-based, mouse
Conditions: not given
From the text: Indeed, the level of pigmentation of human primary melanocytes or choleratoxin-induced S91 cells, which is reduced by hydroquinone and benzaldehyde, was not affected by Compound I.

Molecule | level of pigmentation, choleratoxin-induced S91 cells
O=Cc1ccccc1 [benzaldehyde] | reduced
Oc1ccc(O)cc1 [hydroquinone] | reduced

Tested on: MelanoDerm human epidermal equivalents
Experiment: not given
Conditions: MelanoDerm equivalents are known to respond; cited from earlier work

Molecule | pigmentation of epidermal equivalents (known response to whitening agents)
O=Cc1ccccc1 [benzaldehyde] | reducing pigmentation
Oc1ccc(O)cc1 [hydroquinone] | reducing pigmentation

Tested on: MelanoDerm human epidermal equivalents
Experiment: Pigmentation of MelanoDerm epidermal equivalents (DOPA, H&E or F&M staining, image analysis)
Assay type: cell-based
Conditions: MelanoDerm, three days of treatment, stained on fourth day; FIG. 1B, FIG. 2, FIG. 3

Molecule | pigmentation/melanogenesis in epidermal equivalents
Hirudin | no effect on pigmentation
SFLLRN [reference compound] | trend of lightening or reducing pigmentation
TFLLRNPNDK [reference compound] | no effect on pigmentation
B1 | very effective in inhibiting melanogenesis; also recorded: reduces pigmentation

Same assay, conditions: Table D; three days, DOPA stained on fourth day

Molecule | effect on pigmentation, MelanoDerm (K-M contact)
TFLLRNPNDK [reference compound] | no effect

Same assay, conditions: increasing concentrations; SLIGRL 0, 10 and 50 μM; Compound I 0.1 μM to 1 μM; FIG. 4A

Molecule | pigmentation, dose-response
B2 | has the same effect

Target: human Lung Tryptase
Experiment: Tryptase IC50 Method
Assay type: biochemical
Conditions: 37° C., 1.0 nM enzyme, 500 μM substrate
Procedure: The enzyme reaction is started by the addition of enzyme ([E]: 1.0 nM human Lung Tryptase; Cortex Biochem CP3033). Data is collected over a period of 30 min. and the initial rate of substrate hydrolysis (Vo (mOD/min)) is calculated. Inhibition is calculated by comparing to wells containing no inhibitor (vehicle) and IC50 s are determined using a four parameter fit logistics model. […] The enzyme reaction is started by the addition of enzyme ([E]: 10.0 nM Human Skin Chymase; Cortex Biochem CPl 129). Data is collected over a period of 30 min. and the initial rate of substrate hydrolysis (Vo (mOD/min)) is calculated. Inhibition is calculated by comparing to wells containing no inhibitor (vehicle) and IC50 s are determined using a four parameter fit logistics model. Chymase 10 μM Screen Method: The optical density at 405 nm due to hydrolysis of synthetic chromogenic peptide substrates ([S]: 500 μM Suc-Ala-Ala-Pro-Phe-pNA; Bachem L-1400) is measured in the presence and absence of inhibitor compounds of formula (I) with a microplate reader at room temperature. The enzyme reaction is started by the addition of enzyme ([E]: 5.0 nM Human Skin Chymase; Cortex Biochem CP1129), and 3 hours following that addition data is collected. After subtracting background (no enzyme addition), inhibition is calculated by comparing to wells containing no inhibitor (vehicle).

Molecule | IC50 [nM]
CN[C@H](Cc1ccccc1)C(=O)N1CCC[C@H]1C(=O)N[C@@H](CCCNC(=N)N)C(=O)c1nc2ccc(C(=O)OC)cc2s1 [Compound 12] | 1.7
CN[C@H](Cc1ccccc1)C(=O)N1CCC[C@H]1C(=O)N[C@@H](CCCNC(=N)N)C(=O)c1nc2ccc(F)cc2s1 [Compound 17] | 11.1
CN[C@H](Cc1c(F)c(F)c(F)c(F)c1F)C(=O)N1CCC[C@H]1C(=O)N[C@@H](CCCNC(=N)N)C(=O)c1nc2ccccc2s1 [Compound 30] | 2.7
N=C(N)NCCC[C@H](NC(=O)C1CCCC1)C(=O)c1nc2ccccc2s1 [Compound 31] | 828
CN[C@H](Cc1ccccc1)C(=O)N1CCC[C@H]1C(=O)N[C@@H](CCCNC(=N)N)C(=O)c1nc2ccccc2[nH]1 [Compound 35] | 15.1
CCCC[C@H](NC(=O)[C@@H]1CCCN1C(=O)[C@@H](Cc1ccccc1)NC)C(=O)c1nc2ccccc2s1 [Compound 39] | > 10000
CN[C@H](Cc1ccccc1)C(=O)N1CCC[C@H]1C(=O)N[C@@H](CCCNC(=N)N)C(=O)c1nc2c(ccc3ccccc32)s1 [Compound 52] | 33.7

Tested on: human primary melanocytes
Experiment: Pigmentation of primary melanocyte cultures
Assay type: cell-based
Conditions: Table D; three days, DOPA stained on fourth day

Molecule | effect on pigmentation, Melanocytes (no K)
TFLLRNPNDK [reference compound] | no effect

Same assay, conditions: melanocytes alone

Molecule | level of pigmentation, human primary melanocytes
O=Cc1ccccc1 [benzaldehyde] | reduced
Oc1ccc(O)cc1 [hydroquinone] | reduced

Tested on: Co-cultures (no K-M contact)
Experiment: Pigmentation of keratinocyte-melanocyte co-cultures without K-M contact
Assay type: cell-based, human
Conditions: Table D; three days, DOPA stained on fourth day
From the text: Since PAR-2 is not expressed in melanocytes, we tested the possible requirement of keratinocyte-melanocyte interactions for the depigmenting effect of Compound I. Primary melanocyte cultures were compared to identical cultures plated under epidermal equivalents (EpiDerm, lacking melanocytes) to create a co-culture with no contact between keratinocytes and melanocytes. These were also compared to MelanoDerm equivalents, where melanocytes are present in the basal layer of the equivalent. Cultures were treated for three days with Compound I, with the PAR-2 agonist SLIGRL, and with the TR agonist TFLLRNPNDK, as set forth in Table D, and DOPA stained on the fourth day. In Table D, keratinocytes are indicated by "K", melanocytes are indicated by "M" and lack of keratinocyte-melanocyte contact is indicated as "no K-M contact". […] In MelanoDerm equivalents, compound I reduced and SLIGRL induced pigmentation, while TFLLRNPNDK had no effect.

Molecule | effect on pigmentation, Co-cultures (no K-M contact)
TFLLRNPNDK [reference compound] | no effect

Tested on: not listed separately
Experiment: in vivo
Parameters: species or system male rats (Long Evans)
Conditions: rat, iv
Procedure: Since the compounds of the formula (l) are also potent thrombin inhibitors (see U.S. Pat. No. 5,523,308), an ex vivo thrombin assay was conducted to determine the duration of action of the compounds of Formula I. For this i.v. assay male rats (Long Evans, 350-500 g) were implanted with a teflon cannulae via the femoral artery while under anesthesia (pentobarbital i.p., 35 mg/kg). After surgery, the animals were individually housed in standard cages, fed with rat chow (Hanlan, #8604) and continuously infused with physiological saline to maintain arterial patency, (0.5 mL/h, intra arterial) using a spring-shielded swiveling tether connected to an infusion system. The animals were allowed to recover for at least 24 h after the surgical procedure.
A sample of blood was drawn from the animals 15 min before dosing with the inhibitor (0.25 mL blood is drawn into a syringe containing 0.025 mL of Sigma sodium citrate). The test compound was dispersed in water and delivered to the animal (0.25 mL) via the femoral vein. The inhibitor was given at a concentration (mg/mL) which produced 80% inhibition of VO in a plasma sample at 5 min after infusion. Blood was drawn from the arterial line (blood:sodium citrate, 0.25/0.025 mL ) at regular intervals after dosing (5, 10, 15, 30, 60 and 120 min) and placed in a centrifuge tube. A plasma sample was obtained by centrifuging the blood at 10,000 rpm for 5 min. This sample is analyzed for thrombin inhibition using the chromogenic assay, described below.
The rate of increase in absorbance at 405 nm of synthetic peptides (50 μM Spectozyme® TH (H-D-HHT-Ala-Arg-pNA-2AcOH), American Diagnostica) is measured in the presence of plasma with a microplate reader (Molecular Devices) at 37° C. using an aqueous buffer (10 mM Tris, 10 mM Hepes, 150 mM NaCl, 0.1% PEG; pH 7.4). The buffer was added to the plasma samples (1:1) dilution prior to delivery to the microplate (1:5 and 1:50 for final plasma dilutions of 1:10 and 1:100 respectively) followed by the enzyme (1 nM human α thrombin). Datum was collected over a 30 min period and the initial rate of substrate hydrolysis (V0 (mOD/min)) was calculated with an analysis program (Softmax, Molecular Devices).
The time to half plasma elimination (t 1/2) was calculated from the slope of VO vs. time, using the following equation: […]. These datum are presented in Table L. In Table L, the compound # corresponds to the compound number described in U.S. Pat. No. 5,523,308.

Molecule | half-life [min]
N=C(N)NCCC[C@H](NC(=O)[C@@H]1CCCN1C(=O)CC(c1ccccc1)c1ccccc1)C(=O)c1nc2ccccc2s1 [Compound 3] | 6
CN[C@H](Cc1ccccc1)C(=O)N1CCC[C@H]1C(=O)N[C@@H](CCCNC(=N)N)C(=O)c1nccs1 [Compound 4] | 16
CN[C@H](Cc1ccccc1)C(=O)N1CCC[C@H]1C(=O)N[C@@H](CCCN=C(N)N)C(=O)c1nc2ccccc2o1 [Compound 5] | 18
CN[C@H](Cc1ccccc1)C(=O)N1CCC[C@H]1C(=O)N[C@@H](CCCNC(=N)N)C(=O)c1nc2ccc(C(=O)OC)cc2s1 [Compound 12] | 43
CN[C@H](Cc1ccccc1)C(=O)N1CCC[C@H]1C(=O)N[C@@H](CCCNC(=N)N)C(=O)c1nc2ccc(F)cc2s1 [Compound 17] | 8
CN[C@H](Cc1c(F)c(F)c(F)c(F)c1F)C(=O)N1CCC[C@H]1C(=O)N[C@@H](CCCNC(=N)N)C(=O)c1nc2ccccc2s1 [Compound 30] | 6
CN[C@H](Cc1ccccc1)C(=O)N1CCC[C@H]1C(=O)N[C@@H](CCCNC(=N)N)C(=O)c1nc2ccccc2[nH]1 [Compound 35] | 11
CN[C@H](Cc1ccccc1)C(=O)N1CCC[C@H]1C(=O)N[C@@H](CCCNC(=N)N)C(=O)c1nc2c(ccc3ccccc32)s1 [Compound 52] | 8

Target: T1, Human Skin Chymase
Experiment: Chymase 10 μM Screen Method
Assay type: biochemical
Conditions: 10 μM, room temperature, 5.0 nM enzyme, 3 hours; read-out: Chymase % Inhibition (10 μM)
Procedure: The enzyme reaction is started by the addition of enzyme ([E]: 1.0 nM human Lung Tryptase; Cortex Biochem CP3033). Data is collected over a period of 30 min. and the initial rate of substrate hydrolysis (Vo (mOD/min)) is calculated. Inhibition is calculated by comparing to wells containing no inhibitor (vehicle) and IC50 s are determined using a four parameter fit logistics model. […] Data is collected over a period of 30 min. and the initial rate of substrate hydrolysis (Vo (mOD/min)) is calculated. Inhibition is calculated by comparing to wells containing no inhibitor (vehicle) and IC50 s are determined using a four parameter fit logistics model. […] The enzyme reaction is started by the addition of enzyme ([E]: 5.0 nM Human Skin Chymase; Cortex Biochem CP1129), and 3 hours following that addition data is collected. After subtracting background (no enzyme addition), inhibition is calculated by comparing to wells containing no inhibitor (vehicle).

Molecule | inhibition at 10 µM [%]
CN[C@H](Cc1ccccc1)C(=O)N1CCC[C@H]1C(=O)N[C@@H](CCCNC(=N)N)C(=O)c1nc2ccc(C(=O)OC)cc2s1 [Compound 12] | 2
CN[C@H](Cc1ccccc1)C(=O)N1CCC[C@H]1C(=O)N[C@@H](CCCNC(=N)N)C(=O)c1nc2ccc(F)cc2s1 [Compound 17] | 3
CN[C@H](Cc1c(F)c(F)c(F)c(F)c1F)C(=O)N1CCC[C@H]1C(=O)N[C@@H](CCCNC(=N)N)C(=O)c1nc2ccccc2s1 [Compound 30] | 6
N=C(N)NCCC[C@H](NC(=O)C1CCCC1)C(=O)c1nc2ccccc2s1 [Compound 31] | 0
CN[C@H](Cc1ccccc1)C(=O)N1CCC[C@H]1C(=O)N[C@@H](CCCNC(=N)N)C(=O)c1nc2ccccc2[nH]1 [Compound 35] | 4
CCCC[C@H](NC(=O)[C@@H]1CCCN1C(=O)[C@@H](Cc1ccccc1)NC)C(=O)c1nc2ccccc2s1 [Compound 39] | 37
CN[C@H](Cc1ccccc1)C(=O)N1CCC[C@H]1C(=O)N[C@@H](CCCNC(=N)N)C(=O)c1nc2c(ccc3ccccc32)s1 [Compound 52] | 4
CN[C@H](Cc1ccccc1)C(=O)N1CCC[C@H]1C(=O)N[C@@H](CCCOC)C(=O)c1nc2ccccc2s1 [Compound 53] | 5

Tested on: Yucatan swine skin
Experiment: Yucatan swine skin pigmentation, topical, visual/chromameter/histology
Conditions: 10 μM, twice daily, five days per week, eight weeks
From the text: Each compound was applied to two sites on the pig twice daily, five days per week for eight weeks. After eight weeks of treatment, chromameter measurements were taken.
Two sites per concentration were placed on opposite sides of the swine dorsum. Chromameter measurements were taken before treatment started and every two weeks thereafter. Pictures were taken periodically and at the end of the experiment.

Molecule | effect on skin pigmentation
SFLLRN [reference compound] | no significant effects

Same assay, conditions: twice a day, five days a week, at seven weeks

Molecule | visual lightness of treated sites versus surrounding skin
B1 | visually lighter than the surrounding skin
